Laboratory results: article PMC6437697 (Journal of Medicinal Chemistry, 2019)

Columns and labels:
Experiment in all cases: KINOMEscan
Format in all cases: binding
Details in all cases: read-out: % control activity remaining
PIK3C2B = target: T1, PIK3C2B (Homo sapiens, UniProt O00750)
T1 construct: purchased Eurofins DiscoverX KINOMEscan

TRKB = target: T2, TRKB (Homo sapiens, UniProt Q16620)
T2 construct: purchased Eurofins DiscoverX KINOMEscan

ADCK3 = target: T3, ADCK3 (Homo sapiens, UniProt Q8NI60)
T3 construct: purchased Eurofins DiscoverX KINOMEscan

PRKD2 = target: T4, PRKD2 (Homo sapiens, UniProt Q9BZL6)
T4 construct: purchased Eurofins DiscoverX KINOMEscan
T4 sequence (Q9BZL6 1-878): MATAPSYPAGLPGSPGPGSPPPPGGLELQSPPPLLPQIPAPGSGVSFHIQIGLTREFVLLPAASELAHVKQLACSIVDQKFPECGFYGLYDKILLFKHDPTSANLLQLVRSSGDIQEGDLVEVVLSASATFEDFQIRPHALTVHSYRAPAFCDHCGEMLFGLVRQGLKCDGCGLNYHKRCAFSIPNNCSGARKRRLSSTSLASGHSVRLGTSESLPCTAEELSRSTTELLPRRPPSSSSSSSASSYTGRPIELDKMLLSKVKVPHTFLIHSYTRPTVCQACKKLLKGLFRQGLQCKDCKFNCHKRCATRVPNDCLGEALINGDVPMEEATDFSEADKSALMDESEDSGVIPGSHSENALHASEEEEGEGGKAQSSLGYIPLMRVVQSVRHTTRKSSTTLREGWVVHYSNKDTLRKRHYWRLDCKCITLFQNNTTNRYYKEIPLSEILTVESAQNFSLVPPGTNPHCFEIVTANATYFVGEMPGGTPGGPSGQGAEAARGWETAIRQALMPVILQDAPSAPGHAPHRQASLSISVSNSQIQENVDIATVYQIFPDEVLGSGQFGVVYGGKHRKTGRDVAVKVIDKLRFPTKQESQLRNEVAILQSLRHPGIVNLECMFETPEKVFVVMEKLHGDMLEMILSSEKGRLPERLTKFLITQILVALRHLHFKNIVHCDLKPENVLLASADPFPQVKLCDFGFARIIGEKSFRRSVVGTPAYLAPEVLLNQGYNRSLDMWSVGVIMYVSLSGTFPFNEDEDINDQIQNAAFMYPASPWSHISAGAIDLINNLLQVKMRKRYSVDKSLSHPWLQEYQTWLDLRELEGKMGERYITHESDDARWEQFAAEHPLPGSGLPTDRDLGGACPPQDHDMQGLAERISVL

[1] = target: T5, JAK1(JH2domain-pseudokinase) (Homo sapiens, UniProt P23458)
T5 construct: JAK1(JH2domain-pseudokinase); purchased Eurofins DiscoverX KINOMEscan

ALK = target: T6, ALK (Homo sapiens, UniProt Q9UM73)
T6 construct: purchased Eurofins DiscoverX KINOMEscan

RIOK1 = target: T7, RIOK1 (Homo sapiens, UniProt Q9BRS2)
T7 construct: purchased Eurofins DiscoverX KINOMEscan
T7 sequence (Q9BRS2 1-568): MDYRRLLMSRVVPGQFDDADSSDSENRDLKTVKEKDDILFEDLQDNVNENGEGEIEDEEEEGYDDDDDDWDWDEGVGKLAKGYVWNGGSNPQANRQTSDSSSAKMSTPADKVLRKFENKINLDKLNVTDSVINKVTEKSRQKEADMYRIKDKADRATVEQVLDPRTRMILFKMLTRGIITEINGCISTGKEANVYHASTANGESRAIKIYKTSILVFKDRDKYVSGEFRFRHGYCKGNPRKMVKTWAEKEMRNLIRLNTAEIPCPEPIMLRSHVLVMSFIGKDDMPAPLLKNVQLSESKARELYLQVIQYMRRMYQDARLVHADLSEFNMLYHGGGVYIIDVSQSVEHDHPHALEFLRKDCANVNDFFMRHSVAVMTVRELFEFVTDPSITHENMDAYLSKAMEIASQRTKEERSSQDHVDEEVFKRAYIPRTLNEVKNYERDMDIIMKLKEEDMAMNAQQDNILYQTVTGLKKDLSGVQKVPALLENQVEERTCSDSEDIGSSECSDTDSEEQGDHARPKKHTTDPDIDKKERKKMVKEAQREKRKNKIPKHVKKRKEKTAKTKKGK

SRMS = target: T8, SRMS (Homo sapiens, UniProt Q9H3Y6)
T8 construct: purchased Eurofins DiscoverX KINOMEscan

[2] = target: T9, RSK4(Kin.Dom.1-N-terminal) (Homo sapiens, UniProt Q9UK32)
T9 construct: RSK4(Kin.Dom.1-N-terminal); purchased Eurofins DiscoverX KINOMEscan

CDK5 = target: T10, CDK5 (Homo sapiens, UniProt Q00535)
T10 construct: purchased Eurofins DiscoverX KINOMEscan

ACVR1 = target: T11, ACVR1 (Homo sapiens, UniProt Q04771)
T11 construct: purchased Eurofins DiscoverX KINOMEscan
T11 sequence (Q04771 21-509): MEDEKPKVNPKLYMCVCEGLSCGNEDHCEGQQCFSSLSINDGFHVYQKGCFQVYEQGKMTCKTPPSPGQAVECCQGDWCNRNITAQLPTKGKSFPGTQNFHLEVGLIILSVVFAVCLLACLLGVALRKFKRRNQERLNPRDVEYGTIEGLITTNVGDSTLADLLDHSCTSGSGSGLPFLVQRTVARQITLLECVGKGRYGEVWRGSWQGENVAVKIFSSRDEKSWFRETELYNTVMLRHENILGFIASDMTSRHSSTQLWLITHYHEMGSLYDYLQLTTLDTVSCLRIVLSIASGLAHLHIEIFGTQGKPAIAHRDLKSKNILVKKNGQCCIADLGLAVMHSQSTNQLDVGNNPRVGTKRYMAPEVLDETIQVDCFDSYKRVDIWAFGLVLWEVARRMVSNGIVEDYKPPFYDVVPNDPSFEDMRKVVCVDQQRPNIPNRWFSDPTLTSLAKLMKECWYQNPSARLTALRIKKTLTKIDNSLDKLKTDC

AURKA = target: T12, AURKA (Homo sapiens, UniProt O14965)
T12 construct: purchased Eurofins DiscoverX KINOMEscan
T12 sequence (O14965 1-403): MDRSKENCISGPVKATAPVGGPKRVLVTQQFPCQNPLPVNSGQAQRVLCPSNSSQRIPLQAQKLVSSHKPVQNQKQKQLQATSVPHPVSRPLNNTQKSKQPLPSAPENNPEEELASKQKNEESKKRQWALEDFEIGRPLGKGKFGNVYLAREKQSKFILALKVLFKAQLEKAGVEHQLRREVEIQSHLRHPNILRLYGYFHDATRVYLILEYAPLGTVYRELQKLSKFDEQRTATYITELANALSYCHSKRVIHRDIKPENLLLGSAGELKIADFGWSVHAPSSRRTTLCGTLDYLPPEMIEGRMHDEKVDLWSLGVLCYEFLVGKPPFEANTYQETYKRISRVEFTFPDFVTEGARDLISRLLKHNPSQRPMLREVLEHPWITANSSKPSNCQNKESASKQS

T2 sequence (Q16620 32-822): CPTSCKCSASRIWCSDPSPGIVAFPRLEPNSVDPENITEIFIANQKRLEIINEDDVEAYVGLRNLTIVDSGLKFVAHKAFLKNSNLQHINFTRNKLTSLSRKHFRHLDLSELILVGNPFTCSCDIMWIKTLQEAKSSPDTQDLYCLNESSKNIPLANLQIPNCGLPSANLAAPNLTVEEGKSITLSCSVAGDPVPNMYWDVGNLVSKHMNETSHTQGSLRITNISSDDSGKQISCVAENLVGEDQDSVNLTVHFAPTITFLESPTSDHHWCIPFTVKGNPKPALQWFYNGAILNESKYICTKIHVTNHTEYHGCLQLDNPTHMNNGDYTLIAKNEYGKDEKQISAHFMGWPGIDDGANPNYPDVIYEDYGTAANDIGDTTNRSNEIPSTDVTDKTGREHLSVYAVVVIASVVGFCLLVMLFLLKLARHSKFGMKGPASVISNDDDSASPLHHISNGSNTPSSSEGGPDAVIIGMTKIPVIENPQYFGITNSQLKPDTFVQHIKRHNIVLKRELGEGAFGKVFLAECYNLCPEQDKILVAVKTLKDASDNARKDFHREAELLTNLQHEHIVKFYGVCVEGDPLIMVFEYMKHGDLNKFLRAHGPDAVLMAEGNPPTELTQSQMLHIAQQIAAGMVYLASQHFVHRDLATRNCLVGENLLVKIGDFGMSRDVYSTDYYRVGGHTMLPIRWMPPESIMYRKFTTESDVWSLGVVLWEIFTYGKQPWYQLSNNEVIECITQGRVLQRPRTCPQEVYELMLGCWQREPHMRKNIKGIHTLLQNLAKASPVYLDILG
T5 sequence (P23458 583-855 limits assumed): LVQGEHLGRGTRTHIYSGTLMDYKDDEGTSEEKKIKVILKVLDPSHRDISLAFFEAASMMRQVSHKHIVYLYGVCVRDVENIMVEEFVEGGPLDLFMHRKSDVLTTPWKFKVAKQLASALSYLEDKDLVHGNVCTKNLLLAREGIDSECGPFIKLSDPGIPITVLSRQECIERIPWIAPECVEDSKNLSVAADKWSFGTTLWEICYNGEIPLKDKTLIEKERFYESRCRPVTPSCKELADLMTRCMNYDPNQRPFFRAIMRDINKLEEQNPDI
T1 sequence (O00750 whole entry): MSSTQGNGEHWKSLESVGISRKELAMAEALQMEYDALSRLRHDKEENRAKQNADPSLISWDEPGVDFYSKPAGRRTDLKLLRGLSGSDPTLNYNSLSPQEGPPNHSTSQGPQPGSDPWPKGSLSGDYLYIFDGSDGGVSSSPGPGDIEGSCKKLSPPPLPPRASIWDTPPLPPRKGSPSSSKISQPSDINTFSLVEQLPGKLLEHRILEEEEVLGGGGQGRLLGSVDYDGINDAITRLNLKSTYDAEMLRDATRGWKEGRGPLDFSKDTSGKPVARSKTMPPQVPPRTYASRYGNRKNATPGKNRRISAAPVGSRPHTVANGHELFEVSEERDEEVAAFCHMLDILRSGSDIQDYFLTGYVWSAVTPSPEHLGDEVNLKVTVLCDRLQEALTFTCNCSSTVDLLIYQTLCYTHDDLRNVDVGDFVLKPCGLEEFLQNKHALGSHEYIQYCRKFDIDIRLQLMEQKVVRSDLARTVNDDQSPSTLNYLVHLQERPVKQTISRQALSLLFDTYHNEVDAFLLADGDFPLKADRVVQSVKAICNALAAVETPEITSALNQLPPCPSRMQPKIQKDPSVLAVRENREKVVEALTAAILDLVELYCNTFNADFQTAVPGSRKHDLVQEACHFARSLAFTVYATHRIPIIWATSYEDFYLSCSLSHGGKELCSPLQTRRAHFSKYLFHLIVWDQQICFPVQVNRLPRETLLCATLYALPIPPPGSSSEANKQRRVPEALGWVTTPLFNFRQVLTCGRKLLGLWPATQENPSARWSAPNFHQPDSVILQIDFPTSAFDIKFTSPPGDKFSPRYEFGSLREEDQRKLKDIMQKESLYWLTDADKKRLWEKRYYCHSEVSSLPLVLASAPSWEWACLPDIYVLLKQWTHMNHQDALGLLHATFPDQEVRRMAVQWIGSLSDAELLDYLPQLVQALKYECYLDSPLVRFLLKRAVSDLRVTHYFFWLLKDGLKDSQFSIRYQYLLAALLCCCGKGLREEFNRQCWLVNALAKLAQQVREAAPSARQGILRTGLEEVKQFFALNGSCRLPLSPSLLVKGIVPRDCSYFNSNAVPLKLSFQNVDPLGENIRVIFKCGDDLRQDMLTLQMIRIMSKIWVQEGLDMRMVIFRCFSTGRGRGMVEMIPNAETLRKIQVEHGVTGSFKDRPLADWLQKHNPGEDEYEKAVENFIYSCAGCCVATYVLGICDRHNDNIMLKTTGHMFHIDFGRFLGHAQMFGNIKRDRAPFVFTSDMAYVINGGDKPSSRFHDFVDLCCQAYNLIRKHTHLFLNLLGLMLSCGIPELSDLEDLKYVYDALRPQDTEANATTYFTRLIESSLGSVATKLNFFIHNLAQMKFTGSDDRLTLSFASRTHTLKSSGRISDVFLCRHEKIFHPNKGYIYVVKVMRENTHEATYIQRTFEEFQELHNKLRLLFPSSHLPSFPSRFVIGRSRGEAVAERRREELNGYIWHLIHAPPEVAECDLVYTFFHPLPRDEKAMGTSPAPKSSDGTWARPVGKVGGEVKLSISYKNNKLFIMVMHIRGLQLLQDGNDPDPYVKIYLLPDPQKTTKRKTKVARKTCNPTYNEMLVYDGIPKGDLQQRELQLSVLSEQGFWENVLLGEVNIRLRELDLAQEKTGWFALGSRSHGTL
T6 sequence (Q9UM73 19-1620): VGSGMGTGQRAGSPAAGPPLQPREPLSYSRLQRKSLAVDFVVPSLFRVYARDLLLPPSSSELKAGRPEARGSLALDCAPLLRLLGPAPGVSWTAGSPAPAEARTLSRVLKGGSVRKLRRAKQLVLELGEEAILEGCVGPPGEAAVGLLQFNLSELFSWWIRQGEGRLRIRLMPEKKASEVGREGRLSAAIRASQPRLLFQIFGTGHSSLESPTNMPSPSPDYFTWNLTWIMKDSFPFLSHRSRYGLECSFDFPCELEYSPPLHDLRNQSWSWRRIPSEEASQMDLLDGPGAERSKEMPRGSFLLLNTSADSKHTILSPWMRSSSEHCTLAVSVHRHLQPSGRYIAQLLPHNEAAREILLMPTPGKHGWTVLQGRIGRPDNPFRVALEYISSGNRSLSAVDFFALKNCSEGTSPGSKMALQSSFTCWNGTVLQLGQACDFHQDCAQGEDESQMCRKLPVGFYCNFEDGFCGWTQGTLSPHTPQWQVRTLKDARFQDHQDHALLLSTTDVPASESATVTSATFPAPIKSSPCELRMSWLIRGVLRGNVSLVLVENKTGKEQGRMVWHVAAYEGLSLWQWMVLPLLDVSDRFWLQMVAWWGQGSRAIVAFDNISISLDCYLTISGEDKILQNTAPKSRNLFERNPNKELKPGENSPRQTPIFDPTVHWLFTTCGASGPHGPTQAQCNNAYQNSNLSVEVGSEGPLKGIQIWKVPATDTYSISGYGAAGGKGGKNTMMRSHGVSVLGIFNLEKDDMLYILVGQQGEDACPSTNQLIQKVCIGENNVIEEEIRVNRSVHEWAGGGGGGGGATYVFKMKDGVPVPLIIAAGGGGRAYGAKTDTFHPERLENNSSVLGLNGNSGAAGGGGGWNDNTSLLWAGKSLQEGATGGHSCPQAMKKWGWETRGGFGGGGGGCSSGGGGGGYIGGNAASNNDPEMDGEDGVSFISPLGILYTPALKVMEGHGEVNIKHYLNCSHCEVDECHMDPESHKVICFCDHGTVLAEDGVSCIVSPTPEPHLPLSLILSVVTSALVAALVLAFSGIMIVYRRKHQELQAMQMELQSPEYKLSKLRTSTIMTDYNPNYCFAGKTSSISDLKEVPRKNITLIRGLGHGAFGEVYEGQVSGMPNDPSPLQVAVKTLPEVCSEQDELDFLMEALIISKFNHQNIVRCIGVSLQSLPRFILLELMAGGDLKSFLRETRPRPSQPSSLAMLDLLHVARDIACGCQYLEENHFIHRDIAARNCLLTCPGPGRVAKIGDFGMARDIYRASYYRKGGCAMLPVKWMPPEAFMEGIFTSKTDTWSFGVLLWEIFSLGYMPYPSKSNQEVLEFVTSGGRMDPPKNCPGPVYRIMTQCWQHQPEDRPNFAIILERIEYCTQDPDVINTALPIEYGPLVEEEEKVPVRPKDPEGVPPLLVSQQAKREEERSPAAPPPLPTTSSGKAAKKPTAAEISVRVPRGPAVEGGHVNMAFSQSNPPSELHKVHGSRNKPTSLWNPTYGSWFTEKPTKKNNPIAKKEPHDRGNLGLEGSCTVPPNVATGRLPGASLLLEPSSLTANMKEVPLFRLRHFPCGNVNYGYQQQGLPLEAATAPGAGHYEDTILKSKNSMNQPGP
T10 sequence (Q00535 whole entry): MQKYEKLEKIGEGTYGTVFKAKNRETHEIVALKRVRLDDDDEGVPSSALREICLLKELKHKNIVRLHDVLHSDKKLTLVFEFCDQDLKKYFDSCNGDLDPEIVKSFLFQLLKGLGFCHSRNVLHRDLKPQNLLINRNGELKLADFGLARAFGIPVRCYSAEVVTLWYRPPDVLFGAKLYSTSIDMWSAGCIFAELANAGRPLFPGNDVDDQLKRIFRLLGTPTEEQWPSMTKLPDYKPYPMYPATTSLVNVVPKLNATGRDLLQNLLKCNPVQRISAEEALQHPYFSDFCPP
T3 sequence (Q8NI60 163-647): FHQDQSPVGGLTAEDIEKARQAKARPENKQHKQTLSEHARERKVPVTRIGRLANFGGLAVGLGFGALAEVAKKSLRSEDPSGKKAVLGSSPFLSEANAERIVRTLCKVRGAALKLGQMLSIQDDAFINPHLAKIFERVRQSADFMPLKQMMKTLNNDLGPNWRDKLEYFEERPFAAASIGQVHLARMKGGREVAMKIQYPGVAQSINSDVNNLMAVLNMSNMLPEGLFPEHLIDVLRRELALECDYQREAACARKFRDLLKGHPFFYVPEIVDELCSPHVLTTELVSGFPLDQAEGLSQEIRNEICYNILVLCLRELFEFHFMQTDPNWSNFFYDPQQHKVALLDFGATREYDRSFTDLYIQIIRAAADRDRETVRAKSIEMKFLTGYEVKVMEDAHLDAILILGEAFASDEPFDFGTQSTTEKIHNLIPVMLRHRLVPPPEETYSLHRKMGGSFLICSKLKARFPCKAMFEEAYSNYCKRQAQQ

Row | SMILES | remaining binding at 1 µM (PIK3C2B) | remaining binding at 1 µM (TRKB) | remaining binding at 1 µM (ADCK3) | remaining binding at 1 µM (PRKD2) | remaining binding at 1 µM [1] | remaining binding at 1 µM (ALK) | remaining binding at 1 µM (RIOK1) | remaining binding at 1 µM (SRMS) | remaining binding at 1 µM [2] | remaining binding at 1 µM (CDK5) | remaining binding at 1 µM (ACVR1) | remaining binding at 1 µM (AURKA)
1 | Clc1cc(NCC2CC2)c2ncc(-c3ccc4[nH]ncc4c3)n2n1 [compound 2, 6-Chloro-N-(cyclopropylmethyl)-3-(1H-indazol-5-yl)imidazo[1,2-b]pyridazin-8-amine] | 86% | 89% | 79% | 100% | 93% | 92% | 35% | 91% | 27% | 100% | 90% | 90%
2 | O=C(CN1CCOCC1)N[C@H]1CC[C@H](Nc2cc(Cl)nn3c(-c4ccc5[nH]ncc5c4)cnc23)CC1 [compound 26] | 97% | 69% | 88% | 100% | 100% | 94% | 33% | 86% | 13% | 92% | 95% | 98%
3 | CN1CCC(CNc2cc(Cl)nn3c(-c4cc5nc(Nc6ccccc6)[nH]c5cc4F)cnc23)CC1 [compound 31, 6-Chloro-3-(6-fluoro-2-(phenylamino)-1H-benzo[d]imidazol-5-yl)-N-((1-methylpiperidin-4-yl)methyl)imidazo[1,2-b]pyridazin-8-amine] | 100% | 91% | 85% | 93% | 82% | 70% | 88% | 95% | 97% | 99% | 99% | 75%
